# Assay results reported in patent US7223773B2, “4-oxoquinolizine antibacterial agent having 2-pyridone skeleton as partial structure” (Salo Pharmaceutical Co., Ltd., priority 2001, dated 2007).
# Where two headings read alike, the source gives them in different places.
# Assays:
# Type in all cases: cell-based
# [1] = system: Bacteroides fragilis GAI 0675; assay: in vitro antibacterial activity on anaerobic bacteria (MIC); conditions: GAI0675; Bacteroides fragilis GAI 0675, anaerobic; read-out: Antimicrobial spectrum MIC
# Protocol: (§1) The in vitro antibacterial activities of the compounds provided by the present invention were tested by a standard method of Chemotherapy Society of Japan, i.e. an agar plate dilution method disclosed in CHEMOTHERAPY Vol. 29, pages 76–79, 1981, and the activities of them on anaerobic bacteria were tested by a method disclosed in CHEMOTHERAPY Vol. 27, 559–590, 1979. The results were shown in terms of the minimum inhibition concentration (MIC, μg/ml) for the growth of the bacteria.
# [2] = system: Propionibacterium acnes JCM 6425; assay: as above; conditions: Cutibacterium acnes, JCM6425; Propionibacterium acnes JCM 6425, anaerobic; read-out: Antimicrobial spectrum MIC
# Protocol: as §1
# [3] = system: Bacteroides thetaiotaomicron ATCC 29741; assay: as above
# Protocol: as §1
# [4] = system: Bacillus subtilis JCM 2499; assay: in vitro antibacterial activity, agar plate dilution method (MIC); conditions: JCM2499, read-out: Antimicrobial spectrum MIC
# Protocol: as §1
# [5] = system: Staphylococcus aureus JCM 2874; assay: as above; conditions: JCM2874, read-out: Antimicrobial spectrum MIC
# Protocol: as §1
# [6] = system: Staphylococcus aureus IFO 13276; assay: as above; conditions: IFO13276, read-out: Antimicrobial spectrum MIC
# Protocol: as §1
# [7] = system: Staphylococcus aureus Clin-211(MRSA); assay: as above; conditions: read-out: Antimicrobial spectrum MIC
# Protocol: as §1
# [8] = system: Enterococcus faecalis RIMD 3116001; assay: as above; conditions: RIMD3116001, read-out: Antimicrobial spectrum MIC
# Protocol: as §1
# [9] = system: Klebsiella pneumoniae IID 865; assay: as above; conditions: IID865, read-out: Antimicrobial spectrum MIC
# Protocol: as §1
# [10] = system: Streptococcus pneumoniae IID 553; assay: as above; conditions: IID553, read-out: Antimicrobial spectrum MIC
# Protocol: as §1
# [11] = system: Micrococcus luteus KI 3122; assay: as above; conditions: KI3122, read-out: Antimicrobial spectrum MIC
# Protocol: as §1
# [12] = system: Escherichia coli IFO 12734; assay: as above; conditions: IFO12734, read-out: Antimicrobial spectrum MIC
# Protocol: as §1
# [13] = system: Enterococcus faecalis CSJ 1212; assay: as above; conditions: CSJ1212, read-out: Antimicrobial spectrum MIC
# Protocol: as §1
# [14] = system: Branhamella catarrhalis IID 5233; assay: as above; conditions: Moraxella catarrhalis, IID5233, read-out: Antimicrobial spectrum MIC
# Protocol: as §1
# [15] = system: Haemophilus influenzae IID 984; assay: as above; conditions: IID984, read-out: Antimicrobial spectrum MIC
# Protocol: as §1
# [16] = system: Pseudomonas aeruginosa CSJ 1853; assay: as above; conditions: CSJ1853, read-out: Antimicrobial spectrum MIC
# Protocol: as §1
# [17] = system: Staphylococcus aureus IID 803(Smith); assay: as above; conditions: IID803, read-out: Antimicrobial spectrum MIC
# Protocol: as §1
# [18] = system: Staphylococcus epidermidis IFO 12993; assay: as above; conditions: IFO12993, read-out: Antimicrobial spectrum MIC
# Protocol: as §1
# [19] = ATCC29741, Bacteroides thetaiotaomicron ATCC 29741, anaerobic, read-out: Antimicrobial spectrum MIC
smiles,measurement,setting,value
"C[C@H]1COc2c(N3CCN(C)CC3)c(F)cc3c(=O)c(C(=O)O)cn1c23 [Levofloxacin, reference compound]",MIC,[1],0.5 µg/mL
same,MIC,[2],0.25 µg/mL
same,MIC,"[3]; Bacteroides thetaiotaomicron, ATCC29741, read-out: Antimicrobial spectrum MIC",4 µg/mL
same,MIC,[4],0.031 µg/mL
same,MIC,[5],0.25 µg/mL
same,MIC,[6],0.125 µg/mL
same,MIC,[7],4 µg/mL
same,MIC,[8],1 µg/mL
same,MIC,[9],0.008 µg/mL
same,MIC,[10],0.5 µg/mL
same,MIC,[11],1 µg/mL
same,MIC,[12],0.031 µg/mL
same,MIC,[13],0.5 µg/mL
same,MIC,[14],0.031 µg/mL
same,MIC,[15],0.016 µg/mL
same,MIC,[16],0.5 µg/mL
same,MIC,[17],0.125 µg/mL
same,MIC,[18],0.25 µg/mL
"Cc1c(-c2ccc(C#N)cc2)ccn2c(=O)c(C(=O)O)cc(C3CC3)c12 [Example 36, 8-(4-Cyanophenyl)-1-cyclopropyl-9-methyl-4-oxo-4H-quinolizine-3-carboxylic acid]",MIC,[1],0.125 µg/mL
same,MIC,[2],0.063 µg/mL
same,MIC,[3]; [19],0.5 µg/mL
same,MIC,[4],≤ 0.004 µg/mL
same,MIC,[5],0.016 µg/mL
same,MIC,[6],0.016 µg/mL
same,MIC,[7],0.125 µg/mL
same,MIC,[8],0.25 µg/mL
same,MIC,[9],0.031 µg/mL
same,MIC,[10],0.5 µg/mL
same,MIC,[11],0.125 µg/mL
same,MIC,[12],0.25 µg/mL
same,MIC,[13],0.25 µg/mL
same,MIC,[14],0.031 µg/mL
same,MIC,[15],0.063 µg/mL
same,MIC,[16],0.5 µg/mL
same,MIC,[17],0.008 µg/mL
same,MIC,[18],0.016 µg/mL
"Cc1c(-c2ccc(CN)o2)ccn2c(=O)c(C(=O)O)cc(C3CC3)c12 [Example 113, 8-(5-Aminomethylfuran-2-yl)-1-cyclopropyl-9-methyl-4-oxo-4H-quinolizine-3-carboxylic acid]",MIC,[1],1 µg/mL
same,MIC,[3]; [19],2 µg/mL
same,MIC,[4],0.016 µg/mL
same,MIC,[5],0.063 µg/mL
same,MIC,[6],0.031 µg/mL
same,MIC,[8],0.5 µg/mL
same,MIC,[9],0.008 µg/mL
same,MIC,[10],0.5 µg/mL
same,MIC,[11],0.25 µg/mL
same,MIC,[12],0.063 µg/mL
same,MIC,[13],0.5 µg/mL
same,MIC,[14],0.125 µg/mL
same,MIC,[15],0.031 µg/mL
same,MIC,[16],1 µg/mL
"CC(=NO)c1ccc(-c2ccn3c(=O)c(C(=O)O)cc(C4CC4)c3c2C)cc1 [Example 38, 1-Cyclopropyl-8-[4-(1-hydroxyiminoethyl)phenyl]-9-methyl-4-oxo-4H-quinolizine-3-carboxylic acid]",MIC,[1],0.063 µg/mL
same,MIC,[3]; [19],0.25 µg/mL
same,MIC,[4],≤ 0.004 µg/mL
same,MIC,[5],≤ 0.004 µg/mL
same,MIC,[6],0.008 µg/mL
same,MIC,[7],0.063 µg/mL
same,MIC,[8],0.125 µg/mL
same,MIC,[9],0.031 µg/mL
same,MIC,[10],0.125 µg/mL
same,MIC,[11],0.125 µg/mL
same,MIC,[12],0.125 µg/mL
same,MIC,[13],0.125 µg/mL
same,MIC,[14],0.016 µg/mL
same,MIC,[15],0.125 µg/mL
same,MIC,[16],2 µg/mL
same,MIC,[17],≤ 0.004 µg/mL
same,MIC,[18],0.016 µg/mL
"COc1ccc(-c2ccn3c(=O)c(C(=O)O)cc(C4CC4)c3c2C)cn1 [Example 32, 1-Cyclopropyl-8-(6-methoxypyridin-3-yl)-9-methyl-4-oxo-4H-quinolizine-3-carboxylic acid]",MIC,[1],0.063 µg/mL
same,MIC,[2],0.008 µg/mL
same,MIC,[3]; [19],0.25 µg/mL
same,MIC,[4],≤ 0.004 µg/mL
same,MIC,[5],0.016 µg/mL
same,MIC,[6],0.008 µg/mL
same,MIC,[7],0.125 µg/mL
same,MIC,[8],0.25 µg/mL
same,MIC,[9],0.016 µg/mL
same,MIC,[10],0.5 µg/mL
same,MIC,[11],0.25 µg/mL
same,MIC,[12],0.25 µg/mL
same,MIC,[13],0.125 µg/mL
same,MIC,[14],0.031 µg/mL
same,MIC,[15],0.063 µg/mL
same,MIC,[16],1 µg/mL
same,MIC,[17],0.008 µg/mL
same,MIC,[18],0.016 µg/mL
